Data reported in patent US11542240B2, “STK19 inhibitors for treatment of cancer” (TRUSTEES OF BOSTON UNIVERSITY, priority 2018, dated 2023).
Like-named read-outs stand apart in the source and are kept apart here.

Experiments:
Test in all cases: biochemical
Assay type in all cases: binding
[1] = target: panel of 468 diverse kinases (Homo sapiens, UniProt P53671); conditions: LIMK2; 1000 nM; read-out: Percent Control
[2] = target: panel of 468 diverse kinases (Homo sapiens, UniProt Q92772); conditions: CDKL2; 1000 nM; read-out: Percent Control
[3] = target: panel of 468 diverse kinases (Homo sapiens, UniProt O95382); conditions: ASK2; 1000 nM; read-out: Percent Control
[4] = target: panel of 468 diverse kinases (Homo sapiens, UniProt P54760); conditions: EPHB4; 1000 nM; read-out: Percent Control
[5] = target: panel of 468 diverse kinases (Homo sapiens, UniProt P52564); conditions: MEK6; 1000 nM; read-out: Percent Control
[6] = target: panel of 468 diverse kinases (Homo sapiens, UniProt P27448); conditions: MARK3; 1000 nM; read-out: Percent Control
[7] = target: panel of 468 diverse kinases (Homo sapiens, UniProt P11362); conditions: FGFR1; 1000 nM; read-out: Percent Control
[8] = target: panel of 468 diverse kinases (Homo sapiens, UniProt P04626); conditions: ERBB2; 1000 nM; read-out: Percent Control
[9] = target: panel of 468 diverse kinases (Homo sapiens, UniProt P45984); conditions: JNK2; 1000 nM; read-out: Percent Control
[10] = target: panel of 468 diverse kinases (Homo sapiens, UniProt Q8IW41); conditions: MAPKAPK5; 1000 nM; read-out: Percent Control
[11] = target: panel of 468 diverse kinases (Homo sapiens, UniProt Q9Y2K2); conditions: QSK; 1000 nM; read-out: Percent Control
[12] = target: panel of 468 diverse kinases (Homo sapiens, UniProt Q00535); conditions: CDK5; 1000 nM; read-out: Percent Control
[13] = target: panel of 468 diverse kinases (Homo sapiens, UniProt Q96NX5); conditions: CAMK1G; 1000 nM; read-out: Percent Control
[14] = target: panel of 468 diverse kinases (Homo sapiens, UniProt Q12866); conditions: MERTK; 1000 nM; read-out: Percent Control
Sequence of panel of 468 diverse kinases (Homo sapiens, UniProt Q12866) (Q12866 21-999 limits assumed): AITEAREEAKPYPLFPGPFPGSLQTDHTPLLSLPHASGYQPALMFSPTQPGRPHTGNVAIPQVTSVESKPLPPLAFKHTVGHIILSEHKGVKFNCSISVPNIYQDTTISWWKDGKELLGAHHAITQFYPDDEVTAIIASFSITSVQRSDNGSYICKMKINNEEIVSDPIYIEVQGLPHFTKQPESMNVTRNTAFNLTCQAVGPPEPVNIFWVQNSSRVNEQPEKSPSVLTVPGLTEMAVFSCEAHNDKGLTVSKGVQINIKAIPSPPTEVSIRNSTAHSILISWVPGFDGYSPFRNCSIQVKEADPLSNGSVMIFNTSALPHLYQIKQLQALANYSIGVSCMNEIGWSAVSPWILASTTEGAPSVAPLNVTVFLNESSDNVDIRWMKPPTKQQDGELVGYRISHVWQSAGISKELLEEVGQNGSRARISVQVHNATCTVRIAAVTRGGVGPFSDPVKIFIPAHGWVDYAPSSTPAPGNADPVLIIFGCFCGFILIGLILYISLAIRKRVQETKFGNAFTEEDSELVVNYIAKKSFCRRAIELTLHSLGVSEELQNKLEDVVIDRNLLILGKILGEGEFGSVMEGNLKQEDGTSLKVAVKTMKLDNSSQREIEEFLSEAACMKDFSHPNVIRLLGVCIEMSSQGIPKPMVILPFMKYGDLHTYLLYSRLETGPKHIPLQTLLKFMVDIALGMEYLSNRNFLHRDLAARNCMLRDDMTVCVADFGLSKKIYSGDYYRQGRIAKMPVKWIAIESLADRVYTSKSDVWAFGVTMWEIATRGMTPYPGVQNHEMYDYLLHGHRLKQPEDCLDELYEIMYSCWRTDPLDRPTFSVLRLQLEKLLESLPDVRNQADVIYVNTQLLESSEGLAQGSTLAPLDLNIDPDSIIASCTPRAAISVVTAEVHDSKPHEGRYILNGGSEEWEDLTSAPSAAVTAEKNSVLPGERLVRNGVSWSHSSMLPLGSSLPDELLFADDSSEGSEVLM

[15] = target: panel of 468 diverse kinases (Homo sapiens, UniProt Q9C098); conditions: DCAMKL3; 1000 nM; read-out: Percent Control
[16] = target: panel of 468 diverse kinases (Homo sapiens, UniProt P07948); conditions: LYN; 1000 nM; read-out: Percent Control
[17] = target: panel of 468 diverse kinases (Homo sapiens, UniProt P36888); conditions: 1000 nM, read-out: Percent Control
Sequence of panel of 468 diverse kinases (Homo sapiens, UniProt P36888) (P36888 27-993 limits assumed): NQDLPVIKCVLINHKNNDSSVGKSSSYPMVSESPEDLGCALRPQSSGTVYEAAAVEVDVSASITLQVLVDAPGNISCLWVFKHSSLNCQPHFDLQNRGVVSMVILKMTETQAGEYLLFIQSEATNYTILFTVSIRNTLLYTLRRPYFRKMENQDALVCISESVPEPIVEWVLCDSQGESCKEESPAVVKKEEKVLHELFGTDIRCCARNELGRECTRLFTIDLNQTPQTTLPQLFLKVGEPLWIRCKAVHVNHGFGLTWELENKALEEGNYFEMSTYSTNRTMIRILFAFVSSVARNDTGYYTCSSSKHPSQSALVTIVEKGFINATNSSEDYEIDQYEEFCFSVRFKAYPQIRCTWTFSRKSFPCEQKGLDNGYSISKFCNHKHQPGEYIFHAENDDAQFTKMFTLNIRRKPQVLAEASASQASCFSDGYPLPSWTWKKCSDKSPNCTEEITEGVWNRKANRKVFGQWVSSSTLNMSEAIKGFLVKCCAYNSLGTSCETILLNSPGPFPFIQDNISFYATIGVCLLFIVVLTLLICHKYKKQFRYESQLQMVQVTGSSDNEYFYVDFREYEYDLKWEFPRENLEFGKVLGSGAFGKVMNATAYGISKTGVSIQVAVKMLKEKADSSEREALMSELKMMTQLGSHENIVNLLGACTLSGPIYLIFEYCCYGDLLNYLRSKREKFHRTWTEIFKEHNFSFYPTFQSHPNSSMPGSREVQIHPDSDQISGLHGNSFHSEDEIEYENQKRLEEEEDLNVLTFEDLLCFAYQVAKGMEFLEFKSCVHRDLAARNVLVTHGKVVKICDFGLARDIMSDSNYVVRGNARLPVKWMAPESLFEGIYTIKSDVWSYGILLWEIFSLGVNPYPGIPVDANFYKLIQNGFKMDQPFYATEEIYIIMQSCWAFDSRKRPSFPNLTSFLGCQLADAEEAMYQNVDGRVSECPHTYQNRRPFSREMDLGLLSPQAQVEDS

[18] = target: panel of 468 diverse kinases (Homo sapiens, UniProt P57078); conditions: RIPK4; 1000 nM; read-out: Percent Control
[19] = target: panel of 468 diverse kinases (Homo sapiens, UniProt P08069); conditions: IGF1R; 1000 nM; read-out: Percent Control
Sequence of panel of 468 diverse kinases (Homo sapiens, UniProt P08069) (P08069 31-736 limits assumed): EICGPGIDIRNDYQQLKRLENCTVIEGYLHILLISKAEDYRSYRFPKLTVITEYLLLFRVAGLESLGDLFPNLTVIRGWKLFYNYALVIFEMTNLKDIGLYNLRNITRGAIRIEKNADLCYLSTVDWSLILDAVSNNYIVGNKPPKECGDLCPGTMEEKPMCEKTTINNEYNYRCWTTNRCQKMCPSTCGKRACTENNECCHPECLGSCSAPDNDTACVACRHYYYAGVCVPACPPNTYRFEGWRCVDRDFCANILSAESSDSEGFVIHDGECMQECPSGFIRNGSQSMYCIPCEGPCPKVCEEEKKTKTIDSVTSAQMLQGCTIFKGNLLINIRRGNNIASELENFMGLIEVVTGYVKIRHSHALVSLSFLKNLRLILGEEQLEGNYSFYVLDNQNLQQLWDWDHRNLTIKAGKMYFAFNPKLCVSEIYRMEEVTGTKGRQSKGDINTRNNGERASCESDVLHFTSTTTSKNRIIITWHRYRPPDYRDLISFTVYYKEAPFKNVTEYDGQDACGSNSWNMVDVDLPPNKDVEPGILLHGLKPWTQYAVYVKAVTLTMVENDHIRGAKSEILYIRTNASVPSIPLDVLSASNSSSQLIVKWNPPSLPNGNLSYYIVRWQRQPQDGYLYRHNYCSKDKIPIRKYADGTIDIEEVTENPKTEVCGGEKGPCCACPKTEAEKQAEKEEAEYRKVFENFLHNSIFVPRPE
Sequence of panel of 468 diverse kinases (Homo sapiens, UniProt P08069) (P08069 741-1367 limits assumed): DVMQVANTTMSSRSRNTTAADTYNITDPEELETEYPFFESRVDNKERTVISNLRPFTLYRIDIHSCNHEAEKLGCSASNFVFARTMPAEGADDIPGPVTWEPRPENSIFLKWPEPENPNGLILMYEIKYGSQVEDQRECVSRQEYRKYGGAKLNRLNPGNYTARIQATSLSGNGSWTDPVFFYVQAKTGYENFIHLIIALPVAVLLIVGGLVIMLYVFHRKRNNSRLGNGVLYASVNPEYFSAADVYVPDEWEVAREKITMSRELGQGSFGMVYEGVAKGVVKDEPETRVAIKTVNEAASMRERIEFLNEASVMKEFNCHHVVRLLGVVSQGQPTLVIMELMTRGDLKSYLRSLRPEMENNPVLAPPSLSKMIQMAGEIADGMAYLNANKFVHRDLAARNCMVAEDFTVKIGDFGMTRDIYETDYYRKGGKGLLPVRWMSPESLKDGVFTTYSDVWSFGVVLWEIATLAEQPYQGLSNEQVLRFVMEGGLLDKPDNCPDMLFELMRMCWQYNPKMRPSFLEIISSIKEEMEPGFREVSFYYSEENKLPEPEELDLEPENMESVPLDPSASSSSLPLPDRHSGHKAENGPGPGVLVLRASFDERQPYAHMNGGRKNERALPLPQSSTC

[20] = target: panel of 468 diverse kinases (Homo sapiens, UniProt P42336, Q546K); conditions: PIK3CA(Q546K); 1000 nM; read-out: Percent Control
[21] = target: panel of 468 diverse kinases (Homo sapiens, UniProt P35626); conditions: GRK3; 1000 nM; read-out: Percent Control
[22] = target: panel of 468 diverse kinases (Homo sapiens, UniProt Q8N752); conditions: CSNKIV1L; 1000 nM; read-out: Percent Control
[23] = target: panel of 468 diverse kinases (Homo sapiens, UniProt Q9H0K1); conditions: SIK2; 1000 nM; read-out: Percent Control
[24] = target: panel of 468 diverse kinases (Homo sapiens, UniProt P51955); conditions: NEK2; 1000 nM; read-out: Percent Control
[25] = target: panel of 468 diverse kinases (Homo sapiens, UniProt P42336, C420R); conditions: PIK3CA(C420R); 1000 nM; read-out: Percent Control
[26] = target: panel of 468 diverse kinases (Homo sapiens, UniProt P0C1S8); conditions: WEE2; 1000 nM; read-out: Percent Control
[27] = target: panel of 468 diverse kinases (Homo sapiens, UniProt Q00537); conditions: PCTK2; 1000 nM; read-out: Percent Control
[28] = target: panel of 468 diverse kinases (Homo sapiens, UniProt Q04912); conditions: MST1R; 1000 nM; read-out: Percent Control
Sequence of panel of 468 diverse kinases (Homo sapiens, UniProt Q04912) (Q04912 25-304 limits assumed): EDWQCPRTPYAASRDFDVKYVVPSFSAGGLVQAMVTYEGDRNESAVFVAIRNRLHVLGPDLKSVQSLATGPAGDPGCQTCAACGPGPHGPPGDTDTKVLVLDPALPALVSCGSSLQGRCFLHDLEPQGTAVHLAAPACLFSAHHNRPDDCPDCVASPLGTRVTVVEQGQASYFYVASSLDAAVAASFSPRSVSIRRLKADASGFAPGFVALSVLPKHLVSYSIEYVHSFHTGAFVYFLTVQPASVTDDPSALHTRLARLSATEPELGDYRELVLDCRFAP
Sequence of panel of 468 diverse kinases (Homo sapiens, UniProt Q04912) (Q04912 310-1400 limits assumed): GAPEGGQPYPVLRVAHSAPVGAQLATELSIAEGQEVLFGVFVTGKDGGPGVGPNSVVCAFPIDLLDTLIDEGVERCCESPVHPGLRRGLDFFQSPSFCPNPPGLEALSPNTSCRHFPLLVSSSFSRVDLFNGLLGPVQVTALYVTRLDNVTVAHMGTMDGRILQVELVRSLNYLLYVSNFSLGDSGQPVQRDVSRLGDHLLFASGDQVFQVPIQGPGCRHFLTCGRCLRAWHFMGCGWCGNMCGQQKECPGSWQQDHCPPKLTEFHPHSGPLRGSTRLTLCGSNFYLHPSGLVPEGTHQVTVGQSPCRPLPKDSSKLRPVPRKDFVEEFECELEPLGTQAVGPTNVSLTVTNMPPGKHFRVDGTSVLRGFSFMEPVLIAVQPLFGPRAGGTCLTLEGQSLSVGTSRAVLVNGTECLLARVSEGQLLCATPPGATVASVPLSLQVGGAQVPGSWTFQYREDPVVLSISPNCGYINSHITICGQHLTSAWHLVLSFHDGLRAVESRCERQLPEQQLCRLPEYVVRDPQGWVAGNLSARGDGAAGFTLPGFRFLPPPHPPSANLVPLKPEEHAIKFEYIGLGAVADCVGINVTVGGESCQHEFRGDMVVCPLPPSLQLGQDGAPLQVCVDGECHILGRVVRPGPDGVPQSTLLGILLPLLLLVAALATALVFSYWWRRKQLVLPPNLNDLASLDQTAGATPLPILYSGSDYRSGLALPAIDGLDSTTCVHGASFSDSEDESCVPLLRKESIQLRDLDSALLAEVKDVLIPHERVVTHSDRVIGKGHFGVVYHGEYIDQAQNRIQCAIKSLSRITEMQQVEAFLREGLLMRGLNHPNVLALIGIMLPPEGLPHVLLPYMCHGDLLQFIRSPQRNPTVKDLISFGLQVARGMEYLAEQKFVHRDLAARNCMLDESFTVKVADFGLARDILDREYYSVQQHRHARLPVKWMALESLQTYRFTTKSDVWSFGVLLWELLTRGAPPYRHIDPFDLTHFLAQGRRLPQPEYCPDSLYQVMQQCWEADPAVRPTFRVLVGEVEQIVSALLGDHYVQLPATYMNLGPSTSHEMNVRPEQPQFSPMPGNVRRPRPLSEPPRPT

[29] = target: panel of 468 diverse kinases (Homo sapiens, UniProt Q8TDX7); conditions: NEK7; 1000 nM; read-out: Percent Control
[30] = target: panel of 468 diverse kinases (Homo sapiens, UniProt Q9UHD2); conditions: TBK1; 1000 nM; read-out: Percent Control
[31] = target: panel of 468 diverse kinases (Homo sapiens, UniProt Q14164); conditions: IKK-epsilon; 1000 nM; read-out: Percent Control

SMILES: COc1cc2nc(NC3CC3)nc(NC3CCN(C(C)C)CC3)c2cc1OC [Formula IV]
- remaining activity at 1 µM [1]: 96%
- remaining activity at 1 µM [2]: 100%
- remaining activity at 1 µM [3]: 93%
- remaining activity at 1 µM [4]: 100%
- remaining activity at 1 µM [5]: 99%
- remaining activity at 1 µM [6]: 100%
- remaining activity at 1 µM [7]: 100%
- remaining activity at 1 µM [8]: 100%
- remaining activity at 1 µM [9]: 45%
- remaining activity at 1 µM [10]: 63%
- remaining activity at 1 µM [11]: 44%
- remaining activity at 1 µM [12]: 93%
- remaining activity at 1 µM [13]: 99%
- remaining activity at 1 µM [14]: 70%
- remaining activity at 1 µM [15]: 92%
- remaining activity at 1 µM [16]: 77%
- remaining activity at 1 µM ([17]; FLT3-autoinhibited): 51%
- remaining activity at 1 µM ([17]; FLT3): 100%
- remaining activity at 1 µM [18]: 99%
- remaining activity at 1 µM [19]: 97%
- remaining activity at 1 µM [20]: 54%
- remaining activity at 1 µM [21]: 53%
- remaining activity at 1 µM [22]: 99%
- remaining activity at 1 µM [23]: 81%
- remaining activity at 1 µM [24]: 100%
- remaining activity at 1 µM [25]: 91%
- remaining activity at 1 µM [26]: 96%
- remaining activity at 1 µM [27]: 94%
- remaining activity at 1 µM [28]: 100%
- remaining activity at 1 µM [29]: 89%
- remaining activity at 1 µM [30]: 98%
- remaining activity at 1 µM [31]: 84%
